Tests used:
Hepatitis C virus [1] = assay: Inhibition of Hepatitis C virus subtype 1b J4L6 NS5B Cdelta21 RNA dependent RNA polymerase after 60 mins by liquid scintillation counting analysis; details: J4L6, 1 h
Hepatitis C virus [2] = assay: Inhibition of Hepatitis C virus CON1 NS5B RNA dependent RNA polymerase after 2 hrs by scintillation counting analysis; design: species or system Hepacivirus hominis; details: Con1, 2 h

| IC50 (Hepatitis C virus [2]) | IC90 (Hepatitis C virus [2]) | SMILES | IC50 (Hepatitis C virus [1]) |
| --- | --- | --- | --- |
|  |  | COc1c2c(cc3c1C(C#CCOc1cc4c5c(oc4cc1C(C)(C)C)CCCC5)N(C)CC3)OCO2 (centres undefined) | 38 µM |
|  |  | CCOC(=O)c1c(NC(=O)CSc2nnc3nc4[nH]c5ccccc5c4nn23)sc2c1CCN(C)C2 | 46.3 µM |
| 14.2 µM | 28 µM | CCOc1nc2cccc(C(=O)OC(C)OC(=O)OC3CCCCC3)c2n1Cc1ccc(-c2ccccc2-c2nn[nH]n2)cc1 (centres undefined) [CANDESARTAN CILEXETIL] |  |
